{"source": "patent US11969402B2", "about": "“Compositions and methods for skin rejuvenation” (THE JOHNS HOPKINS UNIVERSITY, priority 2019, dated 2024)", "key": {"[1]": {"test_system": "Wound Induced Hair Neogenesis (WIHN)", "assay": "Wound Induced Hair Neogenesis (WIHN), regenerated hair follicles counted by CSLM", "type": "in vivo, mouse", "details": "WT mice, topical 0.1 μg per mouse on WD1, with or without Poly (I:C)", "method": "(§1) Wound Induced Hair Neogenesis (WIHN). All experiments were followed with the present inventors' WIHN protocol^1,9. Briefly, hair was shaved and a 1.2 cm^2 full-thickness skin on the backs of 21-day old (telogen) male and female mice was removed by sterile scissors. A single treatment of RA (30 μl) (0.1 μg per mouse) (Millipore Sigma, R2625) and BMS493 (30 μl) (0.1 μg per mouse) (Cayman Chemical, #17418) was applied topically onto open wound on WD1 of Tlr3^−/− and WT mice, respectively. Poly (I:C) (50 μl) (5 μg per mouse) (Invivogen, tlrl-pic) was injected under the healed scab on WD3 of WT mice as described before^9,34. On WD20-24, numbers of regenerated hair follicles were visualized and quantified in the re-epithelialized skin by non-invasive confocal scanning laser microscopy (CSLM) (Caliber I.D., VIVASCOPE 1500) as published^1,9. As a vehicle (Control), ethanol (EtOH), dimethylsulfoxide (DMSO), or PBS was treated for RA, BMS493, and Poly (I:C), respectively."}, "[2]": {"test_system": "keratinocytes of Tlr3−/− mice", "assay": "Western blot of stem cell markers in keratinocytes of Tlr3-/- mice", "type": "cell-based, mouse", "details": "keratinocytes of Tlr3−/− mice, BMS493 1 μM pre-treated", "method": "Adult keratinocytes isolation and cultures. For human keratinocytes, 3-mm skin biopsies were taken from areas of the occipital scalp through above IRB protocols using enzyme digestion method as described in the literature^30,31. For mouse keratinocytes, tails of adult mice were used and followed by the same protocol of human keratinocytes. Briefly, the skin fragments were incubated in 0.4% dispase II solution overnight at 4° C., allowing separation of epidermis from dermis. Then epidermis was incubated with 0.25% trypsin-EDTA (Lonza, Walkersville, MD) to isolate keratinocytes for 5 min at 37° C. Adult keratinocytes were maintained in KGM including defined growth factors (KGM-GOLD Bullet kit, #192060) (Lonza) and supplemented with 10 μM of ROCK inhibitor (Y-27632) (Cayman Chemical, #10005583) until use^32. For all in vitro experiments, primary keratinocytes were passaged at least once to eliminate contaminating other cells isolated from epidermis and used at passage 2-4 for human and passage 1-2 for mouse keratinocytes.\n(§2) BMS493 treatment. BMS493 pan-RARs antagonist (1 μM) was pre-treated into keratinocytes for an hour and cells were incubated with RA (0.1 μM and 0.5 μM for human and mouse keratinocytes, respectively) or Poly (I:C) (0.1 μg per ml for both human and mouse keratinocytes) for 48 hrs. At the end of the experiment, cells were harvested for RNA and protein extraction to do further analysis including qRT-PCR and western blot.\nWestern blot analysis. Human and mouse keratinocytes were disrupted in M-PER lysis buffer (Thermo Fisher Scientific, #78501) containing protease inhibitors (Thermo Fisher Scientific, #87786) using ultrasonic homogenizer (20% power with 5 times every 2 seconds) to extract proteins. Then, protein concentrations were determined by BCA method (Thermo Fisher Scientific, #23225). Western blot procedures were followed by the protocol of NuPAGE system (Thermo Fisher Scientific). […] The signal intensity of protein was quantified using Image Lab software (Bio-Rad). […]"}, "[3]": {"test_system": "human scalp keratinocytes", "assay": "Western blot / immunostaining of ALDH1A3, KRT15, KRT19 in human keratinocytes", "type": "cell-based", "details": "human keratinocytes", "method": "as §2\nWestern blot analysis. Human and mouse keratinocytes were disrupted in M-PER lysis buffer (Thermo Fisher Scientific, #78501) containing protease inhibitors (Thermo Fisher Scientific, #87786) using ultrasonic homogenizer (20% power with 5 times every 2 seconds) to extract proteins. Then, protein concentrations were determined by BCA method (Thermo Fisher Scientific, #23225). Western blot procedures were followed by the protocol of NuPAGE system (Thermo Fisher Scientific). Briefly, 20 μg of protein samples were loaded for electrophoresis and transferred to polyvinylidene di-fluoride (PVDF) membrane (Bio-Rad, Hercules, CA). After blocking for at least an hour in 5% non-fat dry milk, the membrane was incubated with primary antibodies with appropriate dilutions (Table 2) at 4° C. overnight and followed by incubation with secondary antibodies for 1 hour at room temperature. Protein amounts were normalized to rabbit polyclonal anti-human β-actin antibody (1:1,000 dilution) (Cell Signaling Technology). Finally, proteins were visualized using SuperSignal West Pico PLUS chemiluminescent substrate kit (Thermo Fisher Scientific, #34577) and saved as image files using ChemiDoc XRS^+ (Bio-Rad). The signal intensity of protein was quantified using Image Lab software (Bio-Rad). Original images of representative blots were provided in the Source data file.\nImmunofluorescence. For tissues, frozen-sections of mouse skin samples were stained with primary antibodies with appropriate dilution at 4° C. overnight, followed by incubation with goat anti-rabbit IgG labeled with Alexa Flour® 488 (Life Technologies) and 594 (Life Technologies) for 1 hour at room temperature. For cells, keratinocytes (3×10^5 cells) plated on cover-slip were fixed with 4% Paraformaldehyde (PFA) for 10 min, permeabilized in PBS including 0.5% Triton X-100 for 15 min at room temperature. After washing with PBS 3 times, cells were stained with primary antibodies overnight at 4° C., followed by incubation with goat anti-rabbit or mouse IgG labeled with Alexa Flour® 488 for 1 hour at room temperature. Cell nuclei were visualized by mounting medium including DAPI (Vector Laboratories, Burlingame, CA, H-1200). Fluorescence images were observed by fluorescence microscopy (Leica microsystems), taken pictures with ×100 (low magnification) and ×200 (high magnification), and saved as image files."}, "wound beds": {"test_system": "wound beds", "assay": "Immunostaining of healing wounds", "type": "in vivo, mouse", "details": "WT mice", "method": "as §1\nImmunofluorescence. […] Fluorescence images were observed by fluorescence microscopy (Leica microsystems), taken pictures with ×100 (low magnification) and ×200 (high magnification), and saved as image files."}, "[4]": {"test_system": "human scalp keratinocytes", "assay": "Retinoid levels (RA by LC-MS/MS, ROL and RE by HPLC-UV) in keratinocytes", "type": "cell-based", "details": "human scalp keratinocytes, rhIL6 0, 10, 50, 100 ng per ml, 2 days", "source_text": "Small interference RNA (siRNA) transfection. Human ALDH1A2 (Santa Cruz Biotechnology, sc41443), ALDH1A3 (Santa Cruz Biotechnology, sc43611), TLR3 (Dharmacon, M-007745-00), TRIF (Santa Cruz Biotechnology, sc106845), IRF3 (Santa Cruz Biotechnology, sc35710), NF-κB (Santa Cruz Biotechnology, sc29410) and non-targeting control (scramble) siRNAs (Santa Cruz Biotechnology, sc37007 & Dharmacon, D-001210) were commercially provided. Human scalp keratinocytes (3×10^5 cells per well) in 12-well plates were transfected with 20 nM of siRNAs using Lipofectamine® RNAiMAX (Thermo Fisher Scientific, #13778150) following the manufacturer's directions. Poly (I:C) (0.1 μg per ml) was applied to transfected cells and incubated for 48 hrs. At the end of transfection period, cells were harvested to isolate protein to perform qRT-PCR, western blot, and RA mass spectrometry.\nIL6 treatment. Recombinant human interleukin 6 (rhIL6) (R&D system; 206-IL-010) was treated into human scalp keratinocytes with dose-dependent manners (0, 10, 50, and 100 ng per ml) for 2 days. Cells were harvested and lysates were used for RA measurement.\nDetermination of Retinoid Levels. For in vitro samples, human scalp keratinocytes were incubated with 0.5 μg per ml of Poly (I:C) for 48 hrs or siRNAs-transfected cells were incubated with 0.1 μg per ml of Poly (I:C) for 48 hrs. For in vivo samples, skin was analyzed from wild-type and Tlr3^−/− unwounded and wounded skin where wound regions (center and edge area) were cut by scalpel. Human skin was analyzed for retinoids with and without CO2 laser treatment as described. All samples were frozen at collection and stored at −80° C. until extraction. For in vitro experiments, media and cell pellets were analyzed separately. For in vivo experiments, tissues were homogenized in saline. Extraction of retinoids was performed under yellow lights using a two-step liquid-liquid extraction that has been described in detail previously using 4,4-dimethyl-RA as an internal standard for RA and retinyl acetate as an internal standard for retinol and total retinyl ester^43-46. For the extraction of retinoids, 1 to 3 ml of 0.025 M KOH in ethanol was added to tissue homogenates (in vivo) or cell culture (in vitro) samples. Then 10 ml hexane (for in vivo tissue sample) or 5 ml hexane (for in vitro cell culture sample) was added to the aqueous ethanol phase. The samples were vortexed and centrifuged for 1 to 3 min at 1000 rpm in a Dynac centrifuge (Becton Dickinson) to facilitate phase separation and pellet precipitated protein. The hexane (top) phase containing nonpolar retinoids (ROL and RE) was removed. 4 M HCl (60-180 μl) was added to the remaining aqueous ethanol phase, samples were vortexed, and then polar retinoids (RA) were removed by extraction with a second 5-10 ml aliquot of hexane as described above. […]\nLevels of RA were determined by liquid chromatography-multistage tandem mass spectrometry (LC-MRM^3) which is an LC-MS/MS method utilizing two distinct fragmentation events for enhanced selectivity^43. RA was measured using a Shimadzu Prominence UFLC XR liquid chromatography system (Shimadzu, Columbia, MD) coupled to an AB Sciex 5500 or 6500+ QTRAP hybrid triple quadrupole mass spectrometer (AB Sciex, Framingham, MA) using atmospheric pressure chemical ionization (APCI) operated in positive ion mode as previously described^43. […]"}}}
{"compound": "CC1(C)CC=C(C#Cc2ccccc2)c2cc(/C=C/c3ccc(C(=O)O)cc3)ccc21", "note": "[BMS493]", "values": [{"measurement": "WIHN", "setting": "[1]", "value": "almost completely ablated"}, {"measurement": "RA-induced Krt15 and Krt19 expression", "setting": "[2]", "value": "substantially inhibits expression"}, {"measurement": "RA-induced active β-catenin (ABC) expression", "setting": "[2]", "value": "inhibits induction"}, {"measurement": "RA and Poly (I:C)-induced KRT15 and KRT19 expression", "setting": "[3]; BMS493 1 μM pre-treated", "value": "substantially inhibited"}, {"measurement": "Wnt7b and Krt15 protein expression in wound beds prior to regeneration", "setting": "wound beds", "value": "decreased"}]}
{"compound": "CCN(CC)c1ccc(C=O)cc1", "note": "[DEAB, N,N-diethylaminobenzaldehyde]", "values": [{"measurement": "Poly (I:C) induction of ALDH1A3, KRT15 and KRT19 protein", "setting": "[3]; broad ALDH chemical inhibition", "value": "disrupted"}]}
{"compound": "IL-6: Recombinant human interleukin 6 (R&D system; 206-IL-010)", "values": [{"measurement": "RA accumulation", "setting": "[4]", "value": "sufficient to substantially stimulate RA accumulation"}]}
